Experimental data from patent publication US20080102497A1, “ENZYMATIC HYDROLYSIS OF STARCH” (priority 2006, published 2008).
Values joined by “and” are separate entries in the source; they are usually repeats but may differ in a detail not shown here. Equal values may be shown once. Read-outs that look alike come from different tables or passages of the source.

What was measured:
[1] = target: T1, α-amylase from Bacillus amyloliquefaciens (Bacillus amyloliquefaciens, UniProt P00692); experiment: hydrolysis of raw corn starch, reducing sugar by DNSA; assay type: biochemical; settings: for Relative Activity: raw corn starch, pH 5.3, 37° C., 20 min
T1 sequence (P00692 32-514): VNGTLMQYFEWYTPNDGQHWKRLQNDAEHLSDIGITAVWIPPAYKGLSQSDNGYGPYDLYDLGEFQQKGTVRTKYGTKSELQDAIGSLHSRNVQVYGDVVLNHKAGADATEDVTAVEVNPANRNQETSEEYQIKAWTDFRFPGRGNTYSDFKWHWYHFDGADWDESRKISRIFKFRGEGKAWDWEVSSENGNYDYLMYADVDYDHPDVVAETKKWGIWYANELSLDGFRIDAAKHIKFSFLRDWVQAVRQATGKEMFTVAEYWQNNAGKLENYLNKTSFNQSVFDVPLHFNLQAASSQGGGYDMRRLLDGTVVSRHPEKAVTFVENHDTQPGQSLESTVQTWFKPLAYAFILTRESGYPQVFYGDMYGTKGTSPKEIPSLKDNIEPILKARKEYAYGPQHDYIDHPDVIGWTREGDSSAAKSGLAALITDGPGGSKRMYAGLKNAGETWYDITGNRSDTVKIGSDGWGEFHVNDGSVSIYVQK
Experimental: (§1) Thereafter, 40 μl of each pre-incubation solution was added to 15 mg raw corn starch, and the reaction mixture incubated at 37° C. for 20 minutes. The control reaction mixture contained substrate, enzyme, and buffer but no manganese ion. The starch hydrolysis reaction was stopped by combining the reaction mixture with a solution containing DNSA and heating for 30 min at 85° C. The absorbance of the control and test samples was measured at 562 nm to monitor the amount of reducing sugar in each sample.

[2] = target: T2, α-amylase from Bacillus licheniformis (Bacillus licheniformis, UniProt P06278); experiment: as above; assay type: biochemical; settings: for Relative Activity: raw corn starch, pH 5.3, 37° C., 20 min
T2 sequence (P06278 30-512): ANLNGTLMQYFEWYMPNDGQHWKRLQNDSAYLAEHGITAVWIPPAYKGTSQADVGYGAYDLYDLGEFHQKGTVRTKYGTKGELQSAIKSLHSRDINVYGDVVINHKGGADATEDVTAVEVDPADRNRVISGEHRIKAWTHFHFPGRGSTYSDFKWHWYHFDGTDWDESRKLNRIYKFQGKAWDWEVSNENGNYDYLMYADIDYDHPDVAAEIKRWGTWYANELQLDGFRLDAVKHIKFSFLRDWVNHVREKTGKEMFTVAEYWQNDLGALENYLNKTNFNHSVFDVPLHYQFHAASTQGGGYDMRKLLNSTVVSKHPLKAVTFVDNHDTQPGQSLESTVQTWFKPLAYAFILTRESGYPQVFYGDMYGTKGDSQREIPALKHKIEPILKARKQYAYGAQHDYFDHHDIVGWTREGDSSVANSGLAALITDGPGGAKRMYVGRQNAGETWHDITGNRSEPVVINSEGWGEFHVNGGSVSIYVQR
Experimental: as §1

[3] = tested on: glucoamylase from Rhizopus sp.; experiment: pH effect on hydrolysis of raw corn starch; assay type: biochemical; settings: for Relative Activity: 37° C., 20 min, control at pH 4 = 100
Experimental: Enzyme solutions of the glucoamylase from Rhizopus sp. Were prepared in various pH buffers having a pH of 3, 4, 5, 6, 7, or 8. Thereafter, 40 μl of the buffered enzyme solution and a stock solution containing Mn^++ were added to 6 samples containing 15 mg raw corn starch to provide a reaction mixture containing 1.0 mM Mn^++. The reaction mixtures were incubated at 37° C. for 20 minutes.

[4] = target: T2, α-amylase from Bacillus licheniformis; experiment: hydrolysis of cooked starches from different botanical sources; assay type: biochemical; settings: pH 5.2, 37° C., 10 min
β-amylase from barley = β-amylase from barley (Hordeum vulgare, UniProt P16098); experiment: as above; assay type: biochemical; settings: pH 5.2, 37° C., 10 min
Sequence of β-amylase from barley (P16098 whole entry): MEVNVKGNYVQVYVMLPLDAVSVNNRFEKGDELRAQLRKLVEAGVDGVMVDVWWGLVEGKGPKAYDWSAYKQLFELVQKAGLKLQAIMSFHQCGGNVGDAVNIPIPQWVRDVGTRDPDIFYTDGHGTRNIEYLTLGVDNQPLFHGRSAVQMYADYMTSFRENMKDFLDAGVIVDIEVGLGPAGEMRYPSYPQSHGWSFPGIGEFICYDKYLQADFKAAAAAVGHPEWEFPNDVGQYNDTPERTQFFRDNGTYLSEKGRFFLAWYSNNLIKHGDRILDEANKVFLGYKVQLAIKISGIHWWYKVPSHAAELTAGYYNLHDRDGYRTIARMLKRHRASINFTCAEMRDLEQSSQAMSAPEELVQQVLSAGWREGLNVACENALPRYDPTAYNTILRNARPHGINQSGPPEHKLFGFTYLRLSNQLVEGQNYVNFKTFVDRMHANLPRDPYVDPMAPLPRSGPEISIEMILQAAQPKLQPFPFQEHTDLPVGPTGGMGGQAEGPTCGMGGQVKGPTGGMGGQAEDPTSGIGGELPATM
Experimental: The control reaction mixture contained enzyme, buffer, and starch but no manganese ion. The starch hydrolysis reaction was stopped by combining the reaction mixture with 3,5 dinitrosalicylic acid (DNSA) and heating for 30 min at 85° C. The absorbance of the control and test samples was measured at 562 nm to monitor the amount of reducing sugar in each sample.

[5] = target: T1, α-amylase from Bacillus amyloliquefaciens; experiment: hydrolysis of cooked dent corn starch; assay type: biochemical; settings: 0.1 mM Mn^++; cooked dent corn starch 0.5%; pH 5.2; 37° C., 10 min
[6] = target: α-amylase from Aspergillus oryzae (Aspergillus oryzae, UniProt P0C1B3); experiment: hydrolysis of cooked dent corn starch; assay type: biochemical; settings: cooked dent corn starch 0.5%, pH 5.2, 37° C., 10 min
[7] = target: T3, α-amylase from human saliva (Homo sapiens, UniProt P0DUB6); experiment: hydrolysis of cooked dent corn starch; assay type: biochemical; settings: cooked dent corn starch 0.5%, pH 5.2, 37° C., 10 min
T3 construct: the α-amylase from human saliva; from tissue; host or cells: human saliva
T3 sequence (P0DUB6 16-511): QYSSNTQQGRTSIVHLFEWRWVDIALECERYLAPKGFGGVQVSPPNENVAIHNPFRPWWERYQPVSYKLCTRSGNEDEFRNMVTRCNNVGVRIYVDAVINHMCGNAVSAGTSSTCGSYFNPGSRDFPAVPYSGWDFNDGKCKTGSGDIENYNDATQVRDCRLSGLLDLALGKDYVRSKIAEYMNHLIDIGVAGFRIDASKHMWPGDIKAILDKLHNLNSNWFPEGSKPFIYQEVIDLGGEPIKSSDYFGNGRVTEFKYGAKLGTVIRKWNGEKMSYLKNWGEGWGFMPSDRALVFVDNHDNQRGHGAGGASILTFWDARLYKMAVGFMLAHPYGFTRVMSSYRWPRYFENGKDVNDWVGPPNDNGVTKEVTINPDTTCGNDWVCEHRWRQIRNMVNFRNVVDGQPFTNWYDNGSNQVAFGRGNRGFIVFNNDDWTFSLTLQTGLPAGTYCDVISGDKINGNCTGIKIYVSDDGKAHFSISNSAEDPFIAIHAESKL

[8] = target: glucoamylase from Aspergillus Niger (Aspergillus niger, UniProt P69328); settings: cooked dent corn starch 0.5%, pH 5.2, 37° C., 10 min
Sequence of glucoamylase from Aspergillus Niger (P69328 25-640): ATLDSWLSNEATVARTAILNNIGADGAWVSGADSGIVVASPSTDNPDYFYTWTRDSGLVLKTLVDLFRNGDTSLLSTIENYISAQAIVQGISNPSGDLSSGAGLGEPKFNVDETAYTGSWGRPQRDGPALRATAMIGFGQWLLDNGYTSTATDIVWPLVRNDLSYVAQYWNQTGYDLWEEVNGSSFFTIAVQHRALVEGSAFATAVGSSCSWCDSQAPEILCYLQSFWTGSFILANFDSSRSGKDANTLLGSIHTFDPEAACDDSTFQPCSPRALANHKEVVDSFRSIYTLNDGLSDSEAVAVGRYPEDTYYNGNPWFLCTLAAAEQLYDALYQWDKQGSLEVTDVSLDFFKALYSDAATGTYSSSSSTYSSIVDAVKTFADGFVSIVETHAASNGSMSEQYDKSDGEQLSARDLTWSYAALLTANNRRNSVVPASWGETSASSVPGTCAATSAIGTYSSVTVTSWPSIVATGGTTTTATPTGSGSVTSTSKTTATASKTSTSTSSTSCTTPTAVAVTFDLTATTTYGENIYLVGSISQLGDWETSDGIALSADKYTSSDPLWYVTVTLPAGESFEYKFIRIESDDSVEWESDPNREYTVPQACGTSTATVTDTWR
Experimental: The separate reaction mixtures were incubated at 37° C. for 10 minutes. The control reaction mixtures contained enzyme, buffer, and starch but no manganese ion. The starch hydrolysis reaction was stopped by combining the reaction mixture with a solution containing DNSA and heating for 30 min at 85° C. The absorbance of the control and test samples was measured at 562 nm to monitor the amount of reducing sugar in each sample.

[9] = 0.01 mM Mn^++, cooked potato starch 0.5%
[10] = 0.01 mM Mn^++, cooked rice starch 0.5%
[11] = 0.01 mM Mn^++, cooked soluble potato starch 0.5%
[12] = 0.1 mM Mn^++, cooked barley starch 0.5%
[13] = 0.1 mM Mn^++, cooked pea starch 0.5%
[14] = 0.1 mM Mn^++, cooked potato starch 0.5%
[15] = 0.1 mM Mn^++, cooked rice starch 0.5%
[16] = 0.1 mM Mn^++, cooked soluble potato starch 0.5%
[17] = 0.1 mM Mn^++, cooked tapioca starch 0.5%
[18] = 0.1 mM Mn^++, cooked wheat starch 0.5%
[19] = 1 mM Mn^++, cooked pea starch 0.5%
[20] = 1 mM Mn^++, cooked potato starch 0.5%
[21] = 1 mM Mn^++, cooked rice starch 0.5%
[22] = 1 mM Mn^++, cooked soluble potato starch 0.5%
[23] = 1 mM Mn^++, cooked tapioca starch 0.5%
[24] = 1 mM Mn^++, cooked wheat starch 0.5%
[25] = 10 mM Mn^++, cooked barley starch 0.5%
[26] = 10 mM Mn^++, cooked pea starch 0.5%
[27] = 10 mM Mn^++, cooked potato starch 0.5%
[28] = 10 mM Mn^++, cooked rice starch 0.5%
[29] = 10 mM Mn^++, cooked wheat starch 0.5%

## [Mn+2] [Mn^++, manganese ions]
[1]; 0.01 mM Mn^++
  Relative Activity: 101.5%
[1]; 0.1 mM Mn^++
  Relative Activity: 115.7%
[1]; 1 mM Mn^++
  Relative Activity: 119.1%
[1]; 10 mM Mn^++
  Relative Activity: 111.7%
[1]; summary of Table 4
  effect on hydrolysis of raw corn starch (in words): enhances the hydrolysis of raw corn starch
[2]; 0.01 mM Mn^++
  Relative Activity: 93.4%
[2]; 0.1 mM Mn^++
  Relative Activity: 104.6%
[2]; 1 mM Mn^++
  Relative Activity: 113.8%
[2]; summary of Table 4
  effect on hydrolysis of raw corn starch (in words): enhances the hydrolysis of raw corn starch
[3]; 1.0 mM Mn^++, pH 3-8 tested
  pH of greatest Mn^++-induced activation: 5.0
[3]; pH 3, 1.0 mM Mn^++
  Relative Activity: 98%
[3]; pH 4, 1.0 mM Mn^++
  Relative Activity: 146.7%
[3]; pH 5, 1.0 mM Mn^++
  Relative Activity: 148.6%
[3]; pH 6, 1.0 mM Mn^++
  Relative Activity: 127.8%
[3]; pH 7, 1.0 mM Mn^++
  Relative Activity: 103.1%
[3]; pH 8, 1.0 mM Mn^++
  Relative Activity: 44.3%
[4]; [9]
  Relative Activity: 109.9%
[4]; [10]
  Relative Activity: 115.5%
[4]; [11]
  Relative Activity: 118.3%
[4]; [12]
  Relative Activity: 129.2%
[4]; [13]
  Relative Activity: 129.5%
[4]; [14]
  Relative Activity: 117.5%
[4]; [15]
  Relative Activity: 126.0%
[4]; [16]
  Relative Activity: 147.6%
[4]; [17]
  Relative Activity: 119.2%
[4]; [18]
  Relative Activity: 118.2%
[4]; [19]
  Relative Activity: 143.9%
[4]; [20]
  Relative Activity: 128.7%
[4]; [21]
  Relative Activity: 129.6%
[4]; [22]
  Relative Activity: 142.0%
[4]; [23]
  Relative Activity: 121.5%
[4]; [24]
  Relative Activity: 153.0%
[4]; [25]
  Relative Activity: 142.2%
[4]; [26]
  Relative Activity: 182.3%
[4]; [27]
  Relative Activity: 160.2%
[4]; [28]
  Relative Activity: 157.7%
[4]; [29]
  Relative Activity: 142.1%
β-amylase from barley; 0.01 mM Mn^++, cooked barley starch 0.5%
  Relative Activity: 115.2%
β-amylase from barley; 0.01 mM Mn^++, cooked pea starch 0.5%
  Relative Activity: 108.1%
β-amylase from barley; [9]
  Relative Activity: 109.5%
β-amylase from barley; [10]
  Relative Activity: 107.8%
β-amylase from barley; [11]
  Relative Activity: 117.4%
β-amylase from barley; 0.01 mM Mn^++, cooked tapioca starch 0.5%
  Relative Activity: 111.3%
β-amylase from barley; 0.01 mM Mn^++, cooked wheat starch 0.5%
  Relative Activity: 120.2%
β-amylase from barley; [12]
  Relative Activity: 121.1%
β-amylase from barley; [13]
  Relative Activity: 122.3%
β-amylase from barley; [14]
  Relative Activity: 117.5%
β-amylase from barley; [15]
  Relative Activity: 123.9%
β-amylase from barley; [16]
  Relative Activity: 136.0%
β-amylase from barley; [17]
  Relative Activity: 122.1%
β-amylase from barley; [18]
  Relative Activity: 141.9%
β-amylase from barley; 1 mM Mn^++, cooked barley starch 0.5%
  Relative Activity: 154.0%
β-amylase from barley; [19]
  Relative Activity: 139.2%
β-amylase from barley; [20]
  Relative Activity: 135.4%
β-amylase from barley; [21]
  Relative Activity: 138.1%
β-amylase from barley; [22]
  Relative Activity: 154.1%
β-amylase from barley; [23]
  Relative Activity: 135.6%
β-amylase from barley; [24]
  Relative Activity: 151.9%
β-amylase from barley; [25]
  Relative Activity: 197.5%
β-amylase from barley; [26]
  Relative Activity: 253.4%
β-amylase from barley; [27]
  Relative Activity: 175.1%
β-amylase from barley; [28]
  Relative Activity: 173.4%
β-amylase from barley; 10 mM Mn^++, cooked soluble potato starch 0.5%
  Relative Activity: 165.6%
β-amylase from barley; 10 mM Mn^++, cooked tapioca starch 0.5%
  Relative Activity: 180.5%
β-amylase from barley; [29]
  Relative Activity: 221.1%
[5]
  Relative Activity: 121.0% and 120.4%
[6]; 0.01 mM Mn^++
  Relative Activity: 126.9%
[6]; 0.1 mM Mn^++
  Relative Activity: 131.2%
[6]; 1 mM Mn^++
  Relative Activity: 135.2%
[7]; 0.01 mM Mn^++
  Relative Activity: 120.2%
[7]; 0.1 mM Mn^++
  Relative Activity: 147.5%
[7]; 1 mM Mn^++
  Relative Activity: 224.4%
[7]; 10 mM Mn^++
  Relative Activity: 275.6%
[8]; 0.01 mM Mn^++
  Relative Activity: 113.3%
[8]; 0.1 mM Mn^++
  Relative Activity: 126.1%
[8]; 1 mM Mn^++
  Relative Activity: 148.4%
[8]; 10 mM Mn^++
  Relative Activity: 186.9%
